From US20160297830A1, “NOVEL COMPOUNDS USEFUL FOR THE TREATMENT OF BACTERIAL INFECTIOUS DISEASES” (GALAPAGOS NV, priority 2013, published 2016)
≈ marks a conversion by molar mass, not a printed value. Where two headings read alike, the source gives them in different places.

What was measured:
[1] = tested on: E. coli Ec113 efflux pump KO; assay: microbe, parasite or virus in culture; type: cell-based; conditions: Escherichia coli, read-out: MIC Ec113 efflux pump KO
[2] = tested on: Methicillin Resistant S. aureus Sa2 (MRSA); assay: animal or person; type: in vivo; conditions: lung
[3] = tested on: H. influenza Hi3 ATCC 31517; assay: organism not typed; type: cell-based; conditions: read-out: MIC Hi3
[4] = tested on: E. coli Ec50 efflux pump KO; assay: microbe, parasite or virus in culture; type: cell-based; conditions: Escherichia coli, read-out: MIC Ec50 efflux pump KO
DNA III Polymerase E = DNA III Polymerase E (Escherichia coli, UniProt P10443); assay: In vitro activity against DNA III Polymerase E, E. coli; type: biochemical; conditions: DNA polymerase III, E. coli; read-out: IC50 semiquantitative scoring, E. coli
Chain of DNA III Polymerase E (P10443 whole entry): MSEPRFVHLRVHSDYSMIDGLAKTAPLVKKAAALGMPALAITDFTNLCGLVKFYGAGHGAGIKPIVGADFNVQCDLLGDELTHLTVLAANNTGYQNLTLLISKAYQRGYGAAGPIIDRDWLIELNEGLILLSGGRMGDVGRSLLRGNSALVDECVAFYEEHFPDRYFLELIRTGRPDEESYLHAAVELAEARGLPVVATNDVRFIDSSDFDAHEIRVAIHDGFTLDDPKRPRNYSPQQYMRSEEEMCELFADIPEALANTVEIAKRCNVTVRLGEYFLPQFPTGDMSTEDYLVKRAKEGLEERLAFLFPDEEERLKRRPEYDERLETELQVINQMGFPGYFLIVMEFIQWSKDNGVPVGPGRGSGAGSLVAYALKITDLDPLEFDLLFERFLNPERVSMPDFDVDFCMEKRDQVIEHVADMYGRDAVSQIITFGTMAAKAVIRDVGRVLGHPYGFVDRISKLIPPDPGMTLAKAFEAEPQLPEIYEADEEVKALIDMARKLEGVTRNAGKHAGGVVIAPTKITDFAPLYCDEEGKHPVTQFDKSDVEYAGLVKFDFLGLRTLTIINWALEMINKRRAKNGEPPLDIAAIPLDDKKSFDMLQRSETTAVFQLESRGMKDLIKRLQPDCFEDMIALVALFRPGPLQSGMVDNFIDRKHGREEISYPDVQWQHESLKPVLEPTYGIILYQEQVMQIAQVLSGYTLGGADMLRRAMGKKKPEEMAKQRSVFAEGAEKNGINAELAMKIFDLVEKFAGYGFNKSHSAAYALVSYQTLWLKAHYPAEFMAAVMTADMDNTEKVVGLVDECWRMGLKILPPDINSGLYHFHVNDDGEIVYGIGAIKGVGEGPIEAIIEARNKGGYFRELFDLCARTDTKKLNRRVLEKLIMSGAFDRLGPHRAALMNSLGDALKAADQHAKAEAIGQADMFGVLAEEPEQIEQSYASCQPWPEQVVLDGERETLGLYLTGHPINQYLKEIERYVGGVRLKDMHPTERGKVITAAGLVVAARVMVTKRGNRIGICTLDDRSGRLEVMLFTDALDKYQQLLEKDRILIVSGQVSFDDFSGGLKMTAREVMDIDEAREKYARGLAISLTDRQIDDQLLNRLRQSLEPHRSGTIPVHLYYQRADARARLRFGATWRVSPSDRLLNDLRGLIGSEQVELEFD
In short: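 Recombinant enzyme (0.47 μg/mL diluted stock) in 20 mM Tris pH7.5, 8 mM DTT, 10 mM MgOAc, 0.05% CHAPS met compound series from 100 μM top, 1/5 steps. Activated calf thymus DNA, dNTPs and [α-33P]-dTTP substrate were added, and incubation ran 120 min at 30° C. IC50 came from filter-captured incorporated radioactivity versus controls.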

[5] = tested on: Methicillin Resistant S. aureus (MRSA); assay: Neutropenic mouse thigh infection model; conditions: Thigh Sa
[6] = tested on: S. aureus Sa2 clinical strain NCIMB 41953, MRSA; assay: microbe, parasite or virus in culture; type: cell-based; conditions: Staphylococcus aureus, read-out: MIC Sa2
S. aureus Sa4 NCTC 6571 = assay: Antibacterial activity assay (MIC), S. aureus Sa4; type: cell-based; conditions: Staphylococcus aureus, NCTC6571, read-out: MIC Sa4
[7] = tested on: S. aureus Sa26 ATCC 25923; assay: Antibacterial activity assay (MIC), S. aureus Sa26; type: cell-based; conditions: Staphylococcus aureus
E. coli Ec1 ATCC 25922 = assay: Antibacterial activity assay (MIC), E. coli Ec1; type: cell-based; conditions: Escherichia coli, ATCC25922, read-out: MIC Ec1
[8] = tested on: H. influenza Hi10 clinical strain; assay: organism not typed; type: cell-based; conditions: read-out: MIC Hi10
[9] = tested on: H. influenza Hi106 ATCC 51907; assay: organism not typed; type: cell-based; conditions: read-out: MIC Hi106
[10] = tested on: Methicillin Resistant S. aureus Sa2 (MRSA); type: in vivo; conditions: Groin Sa, Study 2; 50 mg/kg PO BID; sample time 31 h post infection
[11] = tested on: H. influenza Hi47 clinical strain, Ampicillin Resistant; assay: organism not typed; type: cell-based; conditions: read-out: MIC Hi47
S. aureus Sa1 ATCC 13709 = assay: microbe, parasite or virus in culture; type: cell-based; conditions: Staphylococcus aureus, ATCC13709, read-out: MIC Sa1
[12] = target: DNA Polymerase IIIα (DnaE) from Staphylococcus aureus (Staphylococcus aureus, UniProt Q6GG04); assay: biochemical
Chain of DNA Polymerase IIIα (DnaE) from Staphylococcus aureus (Q6GG04 1-1022): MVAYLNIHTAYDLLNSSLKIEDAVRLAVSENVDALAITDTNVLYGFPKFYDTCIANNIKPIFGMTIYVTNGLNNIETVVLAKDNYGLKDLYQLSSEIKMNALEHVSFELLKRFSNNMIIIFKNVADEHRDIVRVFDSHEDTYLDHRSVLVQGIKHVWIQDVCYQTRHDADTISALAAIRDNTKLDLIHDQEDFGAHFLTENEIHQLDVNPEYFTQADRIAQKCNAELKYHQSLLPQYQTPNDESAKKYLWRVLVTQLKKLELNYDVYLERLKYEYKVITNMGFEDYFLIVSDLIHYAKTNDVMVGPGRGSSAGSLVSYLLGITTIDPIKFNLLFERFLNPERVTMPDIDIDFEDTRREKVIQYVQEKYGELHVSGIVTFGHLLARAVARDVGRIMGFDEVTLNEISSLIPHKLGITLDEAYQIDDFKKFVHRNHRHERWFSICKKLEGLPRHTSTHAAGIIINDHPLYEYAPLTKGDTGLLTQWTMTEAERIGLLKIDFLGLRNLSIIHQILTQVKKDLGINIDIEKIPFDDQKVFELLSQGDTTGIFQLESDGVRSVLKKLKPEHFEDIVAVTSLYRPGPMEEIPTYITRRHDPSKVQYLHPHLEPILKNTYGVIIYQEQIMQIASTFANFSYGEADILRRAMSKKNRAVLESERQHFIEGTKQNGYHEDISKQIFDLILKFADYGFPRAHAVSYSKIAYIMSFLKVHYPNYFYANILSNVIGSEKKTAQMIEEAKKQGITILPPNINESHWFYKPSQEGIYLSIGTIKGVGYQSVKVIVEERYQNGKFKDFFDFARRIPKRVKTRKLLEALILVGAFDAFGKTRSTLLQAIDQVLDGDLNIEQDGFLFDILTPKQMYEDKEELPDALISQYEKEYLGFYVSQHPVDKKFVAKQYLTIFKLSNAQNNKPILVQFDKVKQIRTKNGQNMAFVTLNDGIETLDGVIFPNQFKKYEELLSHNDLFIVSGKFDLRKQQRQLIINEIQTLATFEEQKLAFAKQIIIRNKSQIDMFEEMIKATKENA

[13] = Study 2, 50 mg/kg IP BID, sample time 7 h PI
[14] = Study 4, 5 mg/kg IP BID, sample time 24 h PI
[15] = Study 4, 15 mg/kg IP BID, sample time 24 h PI
[16] = Study 4, 50 mg/kg IP BID, sample time 24 h PI
[17] = Study 5, 5 mg/kg IV BID, sample time 24 h PI
[18] = Study 6, 25 mg/kg IV BID, sample time 24 h PI
[19] = Study 7, 15 mg/kg PO BID, sample time 24 h PI
[20] = Study 7, 50 mg/kg PO BID, sample time 24 h PI
[21] = Study 8, 50 mg/kg PO QD, sample time 48 h PI

COC[C@@H]1[C@@H](O)[C@@H]2[C@H]3C=C[C@@H]4[C@@H](COC)C(=O)O[C@H]([C@H](O)COC)[C@H](C)/C=C(\C)[C@@]24O[C@H]3[C@@H]1OC(=O)c1ccc[nH]1 [Compound 2, 8-O-1H-pyrrole-2′-carbonylbranimycin] showed an MIC [1] of 1 µg/mL (≈ 1.74 µM), a log reduction at 50 mg/kg ([2]; Staphylococcus aureus, MRSA, in Mus musculus, po, 24 h, read-out: Log reduction vs. untreated, Study 1, 50 mg/kg PO BID, sample 24 h post infection) of 3.36 and a log reduction at 15 mg/kg ([2]; Staphylococcus aureus, MRSA, in Mus musculus, po, 24 h, read-out: Log reduction vs. untreated, Study 2, 15 mg/kg PO BID, sample 24 h post infection) of 3.91. It also gave a log reduction at 50 mg/kg ([2]; Staphylococcus aureus, MRSA, in Mus musculus, po, 24 h, read-out: Log reduction vs. untreated, Study 2, 50 mg/kg PO BID, sample 24 h post infection) of 2.99, a log reduction at 6.25 mg/kg ([2]; Staphylococcus aureus, MRSA, in Mus musculus, po, 24 h, read-out: Log reduction vs. untreated, Study 4, 6.25 mg/kg PO BID, sample 24 h post infection) of 0.04 and a log reduction at 12.5 mg/kg ([2]; Staphylococcus aureus, MRSA, in Mus musculus, po, 24 h, read-out: Log reduction vs. untreated, Study 4, 12.5 mg/kg PO BID, sample 24 h post infection) of 1.9. For the same molecule, the log reduction at 25 mg/kg ([2]; Staphylococcus aureus, MRSA, in Mus musculus, po, 24 h, read-out: Log reduction vs. untreated, Study 4, 25 mg/kg PO BID, sample 24 h post infection) was 3.48, the log reduction at 5 mg/kg ([2]; Staphylococcus aureus, MRSA, in Mus musculus, po, 72 h, read-out: Log reduction vs. untreated, Study 5, 5 mg/kg PO QD, sample 72 h post infection) was 1.57 and the log reduction at 15 mg/kg ([2]; Staphylococcus aureus, MRSA, in Mus musculus, po, 72 h, read-out: Log reduction vs. untreated, Study 5, 15 mg/kg PO QD, sample 72 h post infection) was 3.62. For the same molecule, the log reduction at 25 mg/kg ([2]; Staphylococcus aureus, MRSA, in Mus musculus, po, 72 h, read-out: Log reduction vs. untreated, Study 6, 25 mg/kg PO QD, sample 72 h post infection) was 3.65, the Active ([2]; Study 1, 50 mg/kg PO BID, sample 24 h post infection) was “Y” and the Active ([2]; Study 2, 15 mg/kg PO BID, sample 24 h post infection) was “Y”. For the same molecule, the Active ([2]; Study 2, 50 mg/kg PO BID, sample 24 h post infection) was “Y”, the Active ([2]; Study 4, 6.25 mg/kg PO BID, sample 24 h post infection) was “N” and the Active ([2]; Study 4, 12.5 mg/kg PO BID, sample 24 h post infection) was “Y”. For the same molecule, the Active ([2]; Study 4, 25 mg/kg PO BID, sample 24 h post infection) was “Y”, the Active ([2]; Study 5, 5 mg/kg PO QD, sample 72 h post infection) was “Y” and the Active ([2]; Study 5, 15 mg/kg PO QD, sample 72 h post infection) was “Y”. The Active ([2]; Study 6, 25 mg/kg PO QD, sample 72 h post infection) was “Y”, the MIC [3] was greater than 64 µg/mL and the MIC [4] was 16 µg/mL (≈ 27.8 µM). The IC50 (DNA III Polymerase E) was 1740 to 17400 nM, the Active [5, 13] was “Y” and the “Log reduction vs. untreated” value [5, 13] was −3.55. The Active [5, 14] was “N”, the “Log reduction vs. untreated” value [5, 14] was −1.16 and the Active [5, 15] was “Y”. For the same molecule, the “Log reduction vs. untreated” value [5, 15] was −3.32, the Active [5, 16] was “Y” and the “Log reduction vs. untreated” value [5, 16] was −4.74. The Active [5, 17] was “N”, the “Log reduction vs. untreated” value [5, 17] was −0.13 and the Active [5, 18] was “Y”. The “Log reduction vs. untreated” value [5, 18] was −3.92, the Active [5, 19] was “Y” and the “Log reduction vs. untreated” value [5, 19] was −4.13. For the same molecule, the Active [5, 20] was “Y”, the “Log reduction vs. untreated” value [5, 20] was −6.72 and the Active [5, 21] was “Y”. For the same molecule, the “Log reduction vs. untreated” value [5, 21] was −4.63, the MIC [6] was 0.5 µg/mL (≈ 0.869 µM) and the MIC (S. aureus Sa4 NCTC 6571) was 1 µg/mL (≈ 1.74 µM). The MIC ([7]; ATCC25923, read-out: MIC Sa26) was 1 µg/mL (≈ 1.74 µM), the MIC ([7]; ATCC25923, read-out: MIC Sa26 + 10% SH) was 1 µg/mL and the MIC ([7]; ATCC25923, read-out: MIC Sa26 + 50% SH) was 2 µg/mL. For the same molecule, the MIC (E. coli Ec1 ATCC 25922) was greater than 64 µg/mL, the MIC [8] was greater than 64 µg/mL and the MIC [9] was greater than 64 µg/mL. For the same molecule, the Active [10] was “Y”, the “Log reduction vs. untreated” value [10] was −2.52 and the MIC [11] was greater than 64 µg/mL. The MIC (S. aureus Sa1 ATCC 13709) was 1 µg/mL (≈ 1.74 µM) and the IC50 [12] was 1.74 to 1740 nM.
